Experimental data from PubChem BioAssay (NCI).
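Step 1: Grow cells in 96-well plates. Step 2: Expose to compound for 48 hours at 5 concentrations. Step 3: Interpolate endpoints linearly; if unreached, use highest concentration. GI50 marks 50% less growth. TGI: total growth inhibition.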

Experiments:
Test in all cases: growth of human tumour cells (NCI), 48 h
[1] = system: RXF 393 renal
[2] = system: HOP-62 NSCLC
[3] = system: SN12C renal
[4] = system: NCI-H226 lung
[5] = system: HCT-15 colon
[6] = system: NCI-H460 lung
[7] = system: SF-268 CNS
[8] = system: HT29 colon

| Structure (SMILES) | TGI [1] [µM] | GI50 [2] [µM] | TGI [2] [µM] | GI50 [3] [µM] | TGI [3] [µM] | GI50 [4] [µM] | TGI [4] [µM] | GI50 [5] [µM] | TGI [5] [µM] | GI50 [6] [µM] | TGI [6] [µM] | GI50 [7] [µM] | TGI [7] [µM] | GI50 [8] [µM] | TGI [8] [µM] | GI50 [1] [µM] |
| --- | --- | --- | --- | --- | --- | --- | --- | --- | --- | --- | --- | --- | --- | --- | --- | --- |
| CCCCN=C(N)c1ccc(N2CCCN(c3ccc(C(N)=NCCCC)cc3)CC2)cc1 | > 68.3 | 15.8 | > 90.1 | 16.6 | > 100 | 1.66 | 99.8 | > 100 | > 100 | 4.15 | 97.6 | 8.53 | > 100 | 10.7 | > 59.7 |  |
| c1ccc(-c2n(Cc3ccc4ccccc4c3)cc[n+]2Cc2ccc3ccccc3c2)cc1 | 2.44 |  |  | 1.26 | 2.64 |  |  | 1.79 | 3.46 |  |  |  |  |  |  | 1.12 |
| COc1cc(/C=C/C(=O)/C=C/c2cc3ccc(Cl)cc3n(Cc3ccccc3)c2=O)ccc1O | 3.34 | 2.75 | 7.08 | 1.95 | 5.01 | 2.02 | 4.66 | 1.24 | 4.01 | 1.89 | 4.27 | 2.16 | 7.47 | 0.424 | 1.68 | 1.8 |
| O=C(CCl)Nc1cc(Cl)c(Cl)cc1Cl | 4.58 |  | 3.89 |  | 2.96 |  | 2.48 |  | 4.3 |  | 7.04 |  | 4.62 |  | 3.7 |  |
| NC(Cc1c[nH]c2ccc(F)cc12)C(=O)O (centres undefined) | > 2500 | 480 | 2160 | 918 | > 2500 | 626 | > 2500 | 1180 | > 2500 | 730 | > 2500 | 677 | > 2500 | 911 | > 2500 | 887 |
| O=S(=O)(c1ccccc1)N1CN2CN(C1)CN(S(=O)(=O)c1ccccc1)C2 | > 100 |  | > 100 |  | > 100 |  | > 100 |  | > 100 |  | > 100 |  |  |  | > 100 |  |
| O=c1c2ccccc2nc(-c2ccccc2Cl)n1-c1nnc(C(F)(F)F)s1 | 14.4 | 6.09 | 29.7 | 3.01 | > 100 | 2.4 | 8.55 | 2.94 | 15 | 3.38 | 23.3 | 4.36 | > 100 | 3.18 | 13.6 | 2.77 |
| CCCCCCCCCCCCCCCCCCOc1ccccc1CC(=O)OCC[N+](CC)(CC)CC | 2.06 | 1.76 | 8.32 | 1.3 | 5.68 | 1.27 | 5.64 | 4.39 | 13.1 | 1.73 | 6.34 | 1.48 | 6.32 | 1.63 | 8.58 | 0.924 |
| COc1c(O)cc2c(c1O)C(=O)C1=C(CCCC1)C2=O | 45 |  | > 100 |  | 58.3 |  | > 100 |  | > 100 |  | 73.4 |  | > 100 |  | 40 |  |
| COc1cc(/C=C/C(=O)N2CCC=CC2=O)cc(OC)c1OC | 4.07 | 6.93 | 22.2 | 2.64 | 7.84 | 2.41 | 6.55 | 1.83 | 5.01 | 3.36 | 10.6 | 3.2 | 12.6 | 2.98 | 9.08 | 1.73 |
| C/C(=N\n1c(O)c(C#N)cc(C#N)c1=O)c1ccncc1 |  | > 100 | > 100 | > 100 | > 100 | > 100 | > 100 | > 100 | > 100 | > 100 | > 100 | > 100 | > 100 | > 100 | > 100 |  |
| Clc1ccc2ncc(-c3cccc(NC4CNC4)n3)n2c1 | 11.6 | 5.98 | 65.4 | 1.58 | > 100 |  |  | 5.39 | > 100 | 2.96 | 13.5 | 8.7 | 33 | 3.21 | > 100 | 1.45 |
| OCc1ccc(N2CCc3cc(F)ccc3C2)cc1Cl | 17.5 | 0.302 | 17.9 | 10.9 | 23.2 |  |  | 3.98 | 21.2 | 0.0583 | 1.84 | 15.2 | 29.9 | 0.167 | 14.1 | 0.993 |
| COc1ccc2nc(-c3ccccc3)cc(Nc3cccc(C(C)=O)c3)c2c1 |  | 2.08 | 4.88 | 3.96 | 17.9 | 16.1 | 34.3 | 4.93 | 22.1 | 6.38 | 40.7 | 2.22 | 8.61 | 3.67 | > 100 |  |
| O=C1c2cccnc2C(=O)c2c1c(C(=O)NCCn1ccnc1)c1ccccn21 | 15.7 | 1.28 | 11.3 | 2.28 | 7.28 |  |  | 3.31 | 15.1 | 0.551 | 2.29 | 2.86 | 16.8 | 2.53 | 9.2 | 3.88 |
| C[C@H](CS)C(=O)N1c2ccccc2C[C@H]1C(=O)O |  |  | > 100 |  | > 100 |  | > 100 |  | > 100 |  | > 100 |  | > 100 |  | > 100 |  |
| N#Cc1ccccc1C#C/C=C\C#CC#C/C=C\C#Cc1ccccc1C#N | 68.2 | 16.5 | 43.5 |  |  | 29.7 | > 100 | 12.7 | > 100 | 41.3 | > 100 | 12 | > 100 | 3.39 | 94.4 | 15 |
| Cc1ccc(-c2nc(N3CCNCC3)c3oc(-c4ccccc4)nc3n2)cc1 | 3.19 | 1.96 | 4.48 | 1.8 | 3.3 |  |  | 1.69 | 3.2 | 1.83 | 3.52 | 2.07 | 5.07 | 1.78 | 3.32 | 1.7 |
